Patent US6585954B1, “Method for searching steroid sulfatase inhibitors” (Kyowa Hakko Kogyo Co., Ltd., priority 1998, dated 2003)

Key:
[1] = tested on: tumor of transformed cell line carrying the introduced human steroid sulfatase gene (STS); test: Effect of a steroid sulfatase inhibitor on estrone-3-sulfate-dependent tumor growth in nude mice (Example 5); type: in vivo, BALB/c-nu/nu mice; details: 0.1 mg/kg estrone-3-sulfate alone, subcutaneously for 22 days; by the 38th day
Description: The volume of a tumor can be calculated from the shorter diameter and the longer diameter of the tumor measured with slide calipers according to the following approximation formula.
Tumor volume=(longer diameter)×(shorter diameter)^2÷2
Animals in which the tumor growth was confirmed after administration of estrone-3-sulfate are selected, and a test compound is administered thereto. Then, the tumor volume is measured to estimate the steroid sulfatase-inhibiting activity of the test compound. The test compound may be administered by any of intravenous, subcutaneous, intraperitoneal and oral routes. The steroid sulfatase-inhibiting activity of the compound can be estimated by measuring the tumor volume at intervals of 3-4 days after the administration, and then comparing the tumor growth between the group to which only estrone-3-sulfate was administered and the group to which estrone-3-sulfate and the test compound were administered.
The cells were suspended at a concentration of 2×10^8 cells/ml and the suspension was mixed with an equal volume of matrigel-basement membrane (Becton & Dickinson). The resulting mixture was subcutaneously transplanted into 7- to 8-weeks-old female BALB/c-nu/nu mice, (nude mice, each group consisting of 5 mice) in an amount of 0.1 ml (1×10^7 cells). […]

[2] = tested on: transformed cell line carrying the introduced human steroid sulfatase gene (STS); test: Tumor formation after transplantation of cells carrying an introduced steroid sulfatase gene (Example 4); type: in vivo, BALB/c-nu/nu mice; details: 0.1 mg/kg estrone-3-sulfate subcutaneously every day, after tumor growth stopped following estrogen preparation
Source text: First, cells carrying the introduced steroid sulfatase gene are transplanted into an animal such as a mouse for fixation to form a tumor. That is, tumor cells carrying the introduced steroid sulfatase gene are transplanted subcutaneously into an immunodeficient mouse, for example, a BALB/c-nu/nu (a nude mouse) or an SCID mouse in an amount of 1-5×10^6 cells to form a tumor. At the time of transplantation, a crude extract of basement membrane containing adhesion factor (e.g., matrigel-basement membrane, Becton & Dickinson) may be added in order to improve the fixation rate [Br. J. Cancer, 67, 953 (1993)]. In the case of estrogen-dependent breast cancer, the fixation rate is improved and the tumor growth after the fixation is promoted by administering an estrogen compound.
The cells were suspended at a concentration of 2×10^8 cells/ml and the suspension was mixed with an equal volume of matrigel-basement membrane (Becton & Dickinson). The resulting mixture was subcutaneously transplanted into 7- to 8-weeks-old female BALB/c-nu/nu mice, (nude mice, each group consisting of 5 mice) in an amount of 0.1 ml (1×10^7 cells). On the day of transplantation and 2 weeks later, an estrogen preparation (EP depo, Teikoku Zoki) was intramuscularly administered. […]

## C[C@]12CC[C@@H]3c4ccc(OS(=O)(=O)O)cc4CC[C@H]3[C@@H]1CCC2=O [estrone-3-sulfate]
[1]
  tumor volume relative to the initial volume: 1.4 times the initial volume
[2]
  tumor growth after administration: the tumor grew in all mice and there was no reduction of tumor
